Results on ten molecules are retold here after patent US7651999B2, “2′, 5′-oligoadenylate analogs” (Sankyo Company, Limited, priority 2002, dated 2010).

Structures are written as SMILES. Where two headings read alike, the source gives them in different places.

The subject of this experiment is Human lung cancer cell line A549 cells. To be noted: 72 hours, MTT, 0.001-10 μM tested.
[1] abbreviates: read-out: 50% Growth inhibitory concentrations of the subject compounds with respect to A549 cells, Experiment 1.
The mark [2] stands for this setting: read-out: 50% Growth inhibitory concentrations of the subject compounds with respect to A549 cells, Experiment 2.
[3] abbreviates: read-out: 50% Growth inhibitory concentrations of the subject compounds with respect to A549 cells, Experiment 3.

Protocol: Human lung cancer cell line A549 cells were plated at a density of 800 cells/200 μl in a 96-well plate using RPMI1640 (Gibco BRL) (containing 10% Fetal Bovine Serum (Hyclone)) for the medium followed by culturing overnight in 5% CO2 at 37° C. Each 2-5A analog was added to each well so that the final concentration became 0.001-10 μM, followed by culturing for 72 hours (3 days) (n=3 or 4). After culturing for 72 hours (3 days), MTT (3-[4,5-dimethylthiazol-2-yl]-2,5-diphenyltetrazolium bromide) was added in 50 μl aliquots to each well at a MTT/RPMI1640 concentration of 5 mg/ml, followed by additionally culturing for 4 hours. After 4 hours, the medium was removed and 150 μl of dimethyl sulfoxide were added to each well. After shaking for 5 minutes, UV absorbance at 540 nm, was measured to determine the relative ratio of the number of viable cells of the compound dose group to the number of viable cells of an untreated cell group followed by calculation of the IC50 concentration that inhibits cell growth by 50%.

As for `Nc1ncnc2c1ncn2[C@@H]1O[C@@]2(COP(=O)(O)OC3C(O)[C@@H](COP(=O)(S)OC4C(O)[C@@H](COP(=O)(O)S)O[C@H]4n4cnc5c(N)ncnc54)O[C@H]3n3cnc4c(N)ncnc43)CCCOC2C1O` (some centres unmarked) [Example 8], under setting [1], the IC50 turned out to be 2.23 µM. As for `CCCCCCCCCC(=O)OCCSP(=O)(O)OC[C@H]1O[C@@H](n2cnc3c(N)ncnc32)C(OP(=O)(O)OC[C@H]2O[C@@H](n3cnc4c(N)ncnc43)C(OP(=O)(O)OC[C@]34CCCOC3C(O)[C@H](n3cnc5c(N)ncnc53)O4)C2O)C1OC` (some centres unmarked) [Example 17], under setting [2], the IC50 was 0.35 µM. The same measure, in the same setting: with `COC1C(OP(=O)(O)OC[C@H]2O[C@@H](n3cnc4c(N)ncnc43)C(OP(=O)(O)OC[C@]34CCCOC3C(O)[C@H](n3cnc5c(N)ncnc53)O4)C2O)[C@H](n2cnc3c(N)ncnc32)O[C@@H]1COP(=O)(O)SCCOC(=O)c1ccccc1` (some centres unmarked) [Example 14] the figure was 2.34 µM. As for `COC1C(OP(=O)(O)OC[C@H]2O[C@@H](n3cnc4c(N)ncnc43)C(OP(=O)(O)OC[C@]34CCCOC3C(O)[C@H](n3cnc5c(N)ncnc53)O4)C2O)[C@H](n2cnc3c(N)ncnc32)O[C@@H]1COP(O)(O)=S` (some centres unmarked) [Example 2], the IC50 is 1.53 µM under setting [1] and 0.91 µM under setting [2]. Take `COC1C(OP(=O)(S)OC[C@H]2O[C@@H](n3cnc4c(N)ncnc43)C(OP(=O)(O)OC[C@]34CCCOC3C(O)[C@H](n3cnc5c(N)ncnc53)O4)C2O)[C@H](n2cnc3c(N)ncnc32)O[C@@H]1COP(=O)(O)SCOC(=O)C(C)(C)C` (some centres unmarked) [Example 9]: the IC50 under setting [1] came out at 1.39 µM.

With `CCCCCCCCCCCCCC(=O)OCCSP(=O)(O)OC[C@H]1O[C@@H](n2cnc3c(N)ncnc32)C(OP(=O)(O)OC[C@H]2O[C@@H](n3cnc4c(N)ncnc43)C(OP(=O)(O)OC[C@]34CCCOC3C(O)[C@H](n3cnc5c(N)ncnc53)O4)C2O)C1OC` (some centres unmarked) [Example 16], the IC50 under setting [2] came out at 0.09 µM.

With `Nc1ncnc2c1ncn2[C@@H]1O[C@H](COP(O)(=S)OC2C(O)[C@@H](COP(O)(=S)OC3C(O)[C@@H](COP(O)(O)=S)O[C@H]3n3cnc4c(N)ncnc43)O[C@H]2n2cnc3c(N)ncnc32)C(O)C1O` (some centres unmarked) [Example 4], the IC50 under setting [1] was 0.48 µM, the IC50 under setting [2] was found to be 0.61 µM and the IC50 under setting [3] is 0.38 µM. Consider `COC1C(OP(=O)(O)OC[C@H]2O[C@@H](n3cnc4c(N)ncnc43)C(OP(=O)(O)OC[C@]34CCCOC3C(O)[C@H](n3cnc5c(N)ncnc53)O4)C2O)[C@H](n2cnc3c(N)ncnc32)O[C@@H]1COP(=O)(O)SCCO` (some centres unmarked) [Example 33], for which the IC50 under setting [3] came out at 2.15 µM. As to `COC1C(OP(=O)(O)OC[C@H]2O[C@@H](n3cnc4c(N)ncnc43)C(OP(=O)(O)OC[C@]34CCCOC3C(O)[C@H](n3cnc5c(N)ncnc53)O4)C2O)[C@H](n2cnc3c(N)ncnc32)O[C@@H]1COP(=O)(O)SCCOC(=O)C(C)(C)C` (some centres unmarked) [Example 13], the IC50 under setting [2] stood at 2.54 µM. Take `COC1C(OP(=O)(O)OC[C@H]2O[C@@H](n3cnc4c(N)ncnc43)C(OP(=O)(O)OC[C@]34CCCOC3C(O)[C@H](n3cnc5c(N)ncnc53)O4)C2O)[C@H](n2cnc3c(N)ncnc32)O[C@@H]1COP(=O)(O)SCOC(=O)C(C)(C)C` (some centres unmarked) [Example 5]: the IC50 is, setting by setting: under setting [1], 0.4 µM; under setting [2], 0.32 µM.
